The values below come from patent US5010005A, “Bio-oxidation of high alcohols in non-aqueous reaction media” (priority 1989, dated 1991).

Series [1] deals with whole cells of Pichia pastoris. The series is described as follows: Conversion of alcohols by whole cells of Pichia pastoris in aqueous reaction media. The format is cell-based. The conditions noted are these: for Oxidation by methanol-induced alcohol oxidase from P. pastoris: aqueous reaction media. How it is done:
Pichia pastoris was obtained from the American Type Culture Collection, Rockville, Maryland, U.S.A. (ATCC 28485). The growth and maintenance medium consisted of: KH2 PO4 2.6 g/L; K2 HPO4 0.3 g/L; (NH4)2 SO4 1.5 g/L; MgSO4.7 ·H2 O 0.3 g/L; Difco yeast extract 1.9 g/L; FeSO4 ·7H2 O 1 mg/L; CuSO4 ·5H2 O 5 μg/L; H3 BO3 10 μg/L; MnSO4 ·H2 O 10 μg/L; ZnSO4 ·7H2 O 70 μg/L: NaMoO4 ·2H2 O 10 μg/L. After the medium was autoclaved and cooled, methanol (10 g/L) and a vitamin solution (J.P. van der Walt and A.E. van Kerken, Antonie van Leeuwenkoek 27: 81-90, 1961) (2 mL) were added. Growth of the organism was carried out in Erlenmeyer shake flasks at 30° C. on a reciprocal shaker (200 rpm). After 72 hrs growth, biomass was harvested by centrifugation (4000 g, 5 min) washed with 0.1 M phosphate buffer pH 8, and resuspended in 0.5 M Tris buffer (pH 8).
Unless otherwise stated, the reaction conditions for whole cell systems in aqueous solution (0.5M Tris pH 8) were as follows: 25 ml of the biomass suspension was dispensed into 125 mL serum vials and the substrate was added to the concentration listed in Table 1. The final biomass concentration was 5 g/L. The vials were flushed with oxygen, capped and sealed to prevent loss of reactants or products from the system. The vials were pressurized with oxygen (15 psig) and shaken (200 rpm) at 30° C. during the reaction. A sample was withdrawn following the reaction time listed in Table 1 and centrifuged (15000 g, 1 min) to remove biomass and stop the reaction. The supernatant liquid was diluted 1:1 with internal standard for gas chromatography. In some cases, a portion of the sample was extracted with 9 volumes of warm (50° C.) water, to solubilize insoluble separated product, mixed thoroughly by vortexing, and then diluted 1:1 with internal standard before assaying by gas chromatography. In all experiments the vials were regularly repressurized with oxygen throughout the reaction period.
The substrates and products were assayed using a Hewlett-Packard 5790A gas chromatograph equipped with a Chromasorb 101 packed column. The carrier gas was helium and the column was run isothermally at 220° C. For aqueous reaction systems the internal standard was isopropyl alcohol (20 g/L). In non-aqueous systems octanol (20 g/L) was dissolved in the appropriate solvent and used as internal standard.

The target in series [2] is T1, purified alcohol oxidase from P. pastoris (Komagataella phaffii, UniProt P04842).
T1 sequence (P04842 2-663 limits assumed): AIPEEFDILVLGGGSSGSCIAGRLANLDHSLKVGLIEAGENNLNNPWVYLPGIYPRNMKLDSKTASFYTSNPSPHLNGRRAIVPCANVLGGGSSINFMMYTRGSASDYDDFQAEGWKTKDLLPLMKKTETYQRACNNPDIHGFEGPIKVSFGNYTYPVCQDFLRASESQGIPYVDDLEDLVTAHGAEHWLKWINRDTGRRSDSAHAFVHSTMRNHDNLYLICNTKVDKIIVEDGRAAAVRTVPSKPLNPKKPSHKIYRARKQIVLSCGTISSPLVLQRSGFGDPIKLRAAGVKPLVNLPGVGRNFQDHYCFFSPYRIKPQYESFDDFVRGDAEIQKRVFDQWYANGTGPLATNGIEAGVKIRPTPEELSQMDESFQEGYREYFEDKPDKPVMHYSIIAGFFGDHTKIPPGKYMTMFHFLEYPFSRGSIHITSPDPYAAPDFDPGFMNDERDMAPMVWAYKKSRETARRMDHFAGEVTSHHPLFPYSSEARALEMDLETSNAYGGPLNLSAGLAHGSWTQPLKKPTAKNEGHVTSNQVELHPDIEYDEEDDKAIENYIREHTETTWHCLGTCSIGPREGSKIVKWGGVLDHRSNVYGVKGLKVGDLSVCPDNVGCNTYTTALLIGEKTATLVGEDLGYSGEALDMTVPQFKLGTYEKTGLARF
Particulars: Patel et al; cited from earlier work.

For series [3], the system named is whole cells of Pichia pastoris. The series is described as follows: Conversion of higher alcohols by whole cells of Pichia pastoris in two-phase (hexane/water) reaction system. The conditions noted are these: alcohol 30 g/L. The class given is cell-based. How it is done:
Growth of the organism was carried out in Erlenmeyer shake flasks at 30° C. on a reciprocal shaker (200 rpm). After 72 hrs growth, biomass was harvested by centrifugation (4000 g, 5 min) washed with 0.1 M phosphate buffer pH 8, and resuspended in 0.5 M Tris buffer (pH 8).
The method of conversion of higher alcohols using whole cells in a two-phase reaction system was as follows. One gram of Pichia pastoris cell paste (pellet resulting from a 10 minute, 9154 g centrifugation) was placed in a 125 ml serum vial and dispersed in 2 ml of H2 O (aqueous phase).
Then 48 ml of hexane containing the substrate (concentration in Table 1) were added to form the organic phase. The reaction was conducted as described above. Samples from the organic phase were withdrawn at the indicated times (Table 1) and the concentration of aldehyde product determined by gas chromatography.
The carrier gas was helium and the column was run isothermally at 220° C. For aqueous reaction systems the internal standard was isopropyl alcohol (20 g/L). In non-aqueous systems octanol (20 g/L) was dissolved in the appropriate solvent and used as internal standard.

In series [4] the test system is P. pastoris. The series is described as follows: Bio-oxidation of hexanol to hexanal by P. pastoris in two-phase aqueous (5% v/v)/organic systems. The class given is cell-based, Pichia pastoris. The conditions noted are these: for Hexanal produced: aqueous phase 5% v/v, 24 h incubation.
The format of series [5] is physicochemical. How it is done:
The partitioning of benzyl alcohol and benzaldehyde between 0.1 M phosphate buffer and each solvent used were measured as follows: benzyl alcohol (10 g/L) and benzaldehyde (10 g/L) were dissolved in each of the solvents of interest. Ten millilitres of each solvent were then dispensed into a test tube containing 10 ml of 0.1 M phosphate buffer (pH 8). The tubes were capped, vortexed, and the mixture was allowed to equilibrate for 1 hr at 30° C. Both phases were then assayed for benzaldehyde and benzyl alcohol as described above. Partition coefficients were expressed as the ratio of the concentration of the solute of interest in the aqueous phase: the concentration of the same compound in the organic phase.
The partition coefficients were determined as in Example 2 but expressed as solute (g/L) in organic phase/solute (g/L) in aqueous phase (see Table 4).

For series [6], the system named is alkane-induced alcohol oxidase. The conditions noted are these: Kemp et al; cited from earlier work.
The target of series [7] is T2, alcohol oxidase (Komagataella phaffii, UniProt P04842).
T2 construct: purchased Provesta Corp. (Bartlesville, Oklahoma)
T2 sequence (P04842 2-663 limits assumed): T1 sequence (P04842 2-663 limits assumed)
The series is described as follows: Conversion of benzyl alcohol to benzaldehyde by purified alcohol oxidase in aqueous two phase systems. The format is biochemical, Pichia pastoris. The conditions noted are these: for Reaction Rate: benzyl alcohol 20 g/L. How it is done:
To determine reaction rates, benzyl alcohol was presolubilized in the solvent of interest to a final concentration of 20 g/L unless otherwise specified. Alcohol oxidase and catalase were premixed in an activity ratio of 1300 U catalase activity per unit of alcohol oxidase activity. In some cases the enzyme mixture was diluted with 0.1 M phosphate buffer (pH 8) to determine the effect of changes in phase volume ratio. The enzyme mixture was then added to the solvent-substrate reaction fluid in a 125 mL serum vial. Reaction conditions were otherwise identical to those described above.
The purified alcohol oxidase was obtained from Provesta Corp. (Bartlesville, Oklahoma) and consisted of a concentrated (35 g/L) protein solution with a specific activity of 14.7 International Enzyme Units (IEU) per milligram of protein. One IEU is defined as the amount of enzyme which will oxidize one micomole of ethanol to acetaldehyde per minute at pH 7.5 at 25° C. The enzyme was stored frozen (-20° C.) until used. Beef liver catalase was obtained from Boehringer Mannheim Inc. as a 20 g/L suspension with a specific activity of 65000 U/mg. It was stored at 4° C.
Benzyl alcohol to benzaldehyde conversion was described in part a) except the percent aqueous phase was varied between 1and 5%.

Consider `CCCCCCCCCCCO` [undecanol], for which the “Oxidation by methanol-induced alcohol oxidase from P. pastoris” value (shortened to “Oxidation … from P. pastoris”) in series [1] is “unable to oxidize”.
As for `OC1CCCCC1` [cyclohexanol], in series [2], the “Oxidation by purified alcohol oxidase” value is on record as “unable to oxidize”.
For the compound `CC(C)(C)O` [tert butanol], the “Oxidation by purified alcohol oxidase” value in series [2] is given as “unable to oxidize”.
Turning to `CCCCCCCO` [heptanol], in series [1], the “Oxidation … from P. pastoris” value is “unable to oxidize”.
Turning to `CCCCCCCCCCO` [decanol], the “Oxidation … from P. pastoris” value in series [1] was “unable to oxidize”.
Still for that read-out and setting: for `CCCCCCCCO` [octanol] the value was “unable to oxidize”.
Take `CC(N)CO` (centres unmarked) [2-amino-1-propanol]: in series [2], the “Oxidation by purified alcohol oxidase” value is given as “unable to oxidize”.
In the case of `CCCCCCCCCO` [nonanol], in series [1], the “Oxidation … from P. pastoris” value is “unable to oxidize”.
With `CCCCCCO` [hexanol], the “Aldehyde concentration, aqueous” value in series [1] (alcohol 30 g/L, reaction time 12 h) came out at 5.0 g/L. Further, the “Aldehyde concentration, 2-phase” value in series [3] (reaction time 6 h) came to 10.6 g/L; in series [3] (reaction time 24 h) it was 12.4 g/L. Besides, the Hexanal produced in series [4] (Chloroform) was 1.0 g/L; in series [4] (Ether), 2.7 g/L; in series [4] (Ethyl acetate), 2.4 g/L; in series [4] (Hexane) it was 8.7 g/L; in series [4] (Toluene) it was 2.4 g/L. In addition, the “Hexanol concentration completely oxidized” value in series [4] (water-hexane two-phase system) was “up to 10 g/L”.
In the case of `CCCCCC=O` [hexanal], the Partition coefficient result in series [5] is recorded as “greater than unity”.
As for `CCCCCCCCCCCCO` [dodecanol], in series [6], the “Substrate specificity of alkane-induced alcohol oxidase” value is recorded as “optimum activity”.
In the case of `OCc1ccccc1` [benzyl alcohol], the inhibition at 20000 µg/mL in series [1] (Komagataella pastoris, read-out: Reduction of reaction rate by substrate inhibition) is ~60%. Besides, in series [1] (whole cells in aqueous reaction fluid), the “Substrate concentration at which strong inhibition of the reaction is observed” value is “greater than 20 g/L”. Moreover, the “Cumulative benzaldehyde production Concn.” value in series [7] (enzyme 1.0 U/mL, time 2.0 h) was 2.1 g/L; in series [7] (enzyme 1.0 U/mL, time 4.0 h), 2.8 g/L; in series [7] (enzyme 1.0 U/mL, time 8.0 h) it was 17 g/L; in series [7] (enzyme 2.5 U/mL, time 2.0 h), 5.1 g/L; in series [7] (enzyme 2.5 U/mL, time 4.0 h), 6.3 g/L; in series [7] (enzyme 5.0 U/mL, time 2.0 h), 9.9 g/L. Also, the “Cumulative benzaldehyde production Concn.” value in series [7] (enzyme 5.0 U/mL, time 4.0 h) is 13 g/L; in series [7] (enzyme 7.5 U/mL, time 2.0 h) it was 13 g/L; in series [7] (enzyme 7.5 U/mL, time 4.0 h) it was 19 g/L; in series [7] (enzyme 10 U/mL, time 2.0 h) it was 15 g/L; in series [7] (enzyme 10 U/mL, time 4.0 h, fed-batch addition of benzyl alcohol), 22 g/L; in series [7] (enzyme 15 U/mL, time 2.0 h), 17 g/L. Moreover, the “Cumulative benzaldehyde production Concn.” value is 32 g/L in series [7] (enzyme 15 U/mL, time 4.0 h, fed-batch addition of benzyl alcohol) and 45 g/L in series [7] (enzyme 15 U/mL, time 8.0 h, fed-batch addition of benzyl alcohol). Besides, the “Initial rate of benzaldehyde production” value came to 1.4 g/L h in series [7] (enzyme concentration 1.0 U/mL (0.06 g/L)); 3.4 g/L h in series [7] (enzyme concentration 2.5 U/mL (0.16 g/L)); 6.3 g/L h in series [7] (enzyme concentration 5.0 U/mL (0.31 g/L)); 8.6 g/L h in series [7] (enzyme concentration 7.5 U/mL (0.47 g/L)); 10.3 g/L h in series [7] (enzyme concentration 10 U/mL (0.63 g/L)); 11.7 g/L h in series [7] (enzyme concentration 15 U/mL (0.94 g/L)). Besides, the “Relative Reaction Rate” value is 0.03 in series [7] (reaction fluid Chloroform); 0.19 in series [7] (reaction fluid Ether); 0.04 in series [7] (reaction fluid Ethylacetate); 1.0 in series [7] (reaction fluid Hexane); 0.49 in series [7] (reaction fluid Toluene). Further, the “Reaction Rate” value in series [7] (reaction fluid Chloroform) is reported as 0.07 g/L h; in series [7] (reaction fluid Ether), 0.39 g/L h; in series [7] (reaction fluid Ethylacetate) it was 0.09 g/L h; in series [7] (reaction fluid Hexane) it was 2.08 g/L h; in series [7] (reaction fluid Toluene), 1.01 g/L h. Also, the “Substrate concentration up to which optimum reaction rates (85% of Vmax) could be maintained” value in series [7] (two phase system, hexane) is recorded as “up to 54 g/L”.
For the compound `NCCO` [2-amino-ethanol], the “Oxidation by purified alcohol oxidase” value in series [2] is on record as “unable to oxidize”.
